Experimental data published in the supplement of paper PMC10307832.

Experiments:
Test in all cases: relative viability (nuclei count vs DMSO), 5 days (fraction); higher = more cells survive
[1] = compound: CN(C/C=C/C1=CC=C(C=C1)Cl)CC2=CC=CC=C2N(CCO)S(=O)(=O)C3=CC=C(C=C3)OC [KN-93] + CS(=O)(=O)N1CCN(Cc2cc3nc(-c4cccc5[nH]ncc45)nc(N4CCOCC4)c3s2)CC1 [Pictilisib] (partner 1 µM)
Summary of the method: (§1)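 Lung cancer cell lines were pin-tool dosed in 1536-well plates on the day after seeding, with either a lone drug or a fixed anchor-drug dose plus five library-drug doses (not always all listed) in √10 steps. Nuclei were counted on 4× images after 5 days. Relative viability is the ratio of treated-well to vehicle-well nuclei counts, with each value a median of duplicate plates.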

[2] = compound: CN(C/C=C/C1=CC=C(C=C1)Cl)CC2=CC=CC=C2N(CCO)S(=O)(=O)C3=CC=C(C=C3)OC [KN-93] + C[C@]1(O)C[C@@H](c2nc(-c3ccc4ccc(-c5ccccc5)nc4c3)c3c(N)nccn32)C1 [Linsitinib] (partner 1 µM)
Summary of the method: as §1

[3] = compound: CN(C/C=C/C1=CC=C(C=C1)Cl)CC2=CC=CC=C2N(CCO)S(=O)(=O)C3=CC=C(C=C3)OC [KN-93] + CCNC(=O)c1noc(-c2cc(C(C)C)c(O)cc2O)c1-c1ccc(CN2CCOCC2)cc1 [Luminespib] (partner 0.01 µM)
Summary of the method: as §1

[4] = compound: CN(C/C=C/C1=CC=C(C=C1)Cl)CC2=CC=CC=C2N(CCO)S(=O)(=O)C3=CC=C(C=C3)OC [KN-93] + N=C(N)NC(=N)NCCc1ccccc1 [Phenformin] (partner 250 µM)
Summary of the method: as §1

[5] = compound: CN(C/C=C/C1=CC=C(C=C1)Cl)CC2=CC=CC=C2N(CCO)S(=O)(=O)C3=CC=C(C=C3)OC [KN-93] + C[C@@H](Oc1cc(-c2cnn(C3CCNCC3)c2)cnc1N)c1c(Cl)ccc(F)c1Cl [Crizotinib] (partner 1 µM)
Summary of the method: as §1

Cell Line	relative viability ([1]; first compound 0.08 µM)	relative viability ([1]; first compound 0.253 µM)	relative viability ([1]; first compound 2.53 µM)	relative viability ([1]; first compound 8 µM)	relative viability ([2]; first compound 0.08 µM)	relative viability ([2]; first compound 0.253 µM)	relative viability ([2]; first compound 2.53 µM)	relative viability ([2]; first compound 8 µM)	relative viability ([3]; first compound 0.08 µM)	relative viability ([3]; first compound 0.253 µM)	relative viability ([3]; first compound 2.53 µM)	relative viability ([3]; first compound 8 µM)	relative viability ([4]; first compound 0.08 µM)	relative viability ([4]; first compound 0.253 µM)	relative viability ([4]; first compound 2.53 µM)	relative viability ([4]; first compound 8 µM)	relative viability ([5]; first compound 0.08 µM)	relative viability ([5]; first compound 0.253 µM)	relative viability ([5]; first compound 2.53 µM)	relative viability ([5]; first compound 8 µM)
LC-2-ad	0.313	0.373	0.368	0.187	0.824	0.906	0.856	0.566	1.11	1.15	0.94	0.818	0.651	0.678	0.645	0.553	0.453	0.459	0.474	0.43
UMC-11		0.976	0.962	0.278		1.19	1.13	0.713	1.01	1.33	1.32	0.346	0.381	0.365	0.355	0.277		0.901	0.413	0.457
LOU-NH91	0.513	0.422	0.568	0.489	0.926	0.856	0.931	0.791	0.399	0.353	0.331	0.321	0.667	0.614	0.8	0.628	0.746	0.716	0.75	0.703
NCI-H1915	0.967	0.865	0.928	0.806	1.03	1.16	1.12	1.03	0.567	1.47	0.846	0.748	0.382	0.421	0.408	0.359	0.705	1.35	0.953	0.859
EMC-BAC-2	0.477	0.608	0.542	0.433	0.821	1	0.878	0.775	1.07	1.27	1.18	0.901	0.501	0.596	0.548	0.458	0.773	0.792	0.772	0.573
HCC-15	0.547	0.866	0.861	0.524	0.85	1	0.802	0.728	0.297	0.319	0.504	0.279	0.401	0.522	0.685	0.42	0.664	0.961	0.795	0.682
EPLC-272H	0.338	0.365	0.294	0.276	1.15	1.27	1.21	0.871	0.438	0.183	0.266	0.173	0.276	0.299	0.276	0.25	1.05	1.01	1.04	0.661
BEN		0.549	0.618	0.381		1.31	1.03	0.786	0.322	0.331	0.619	0.214	0.239	0.26	0.295	0.275		1.13	1.02	0.67
NCI-H727	0.434	0.264	0.379	0.231	0.292	0.223	0.256	0.223	0.367	0.326	0.351	0.376	0.576	0.601	0.814	0.533	0.667	1	0.637	0.429
NCI-H1975	0.281	0.267	0.28	0.25	0.789	0.943	0.992	0.546	0.187	0.241	0.164	0.135	0.423	0.463	0.456	0.4	0.721	1.2	0.875	0.581
NCI-H23	0.414	0.559	0.58	0.446	0.522	0.617	0.659	0.53	0.227	0.185	0.199	0.212	0.705	0.889	0.88	0.609	0.446	0.54	0.574	0.534
NCI-H2126	0.482	0.443	0.499	0.468	0.785	0.673	0.713	0.683	1.03	0.984	0.941	0.708	0.524	0.483	0.502	0.481	1.04	1.14	1.07	0.981
COR-L 105	0.413	0.354	0.388	0.29	0.811	0.878	1.15	0.784	0.765	0.869	0.675	0.739	0.559	0.443	0.517	0.366	0.696	0.873	0.807	0.436
NCI-H2228	0.251	0.324	0.384	0.329	0.581	0.517	0.63	0.314	0.174	0.126	0.163	0.134	0.229	0.347	0.412	0.325	0.445	0.48	0.526	0.248
PC-3 [JPC-3]	0.727	0.708	0.759	0.645	1.02	1.02	0.995	0.876	0.572	0.838	0.632	0.577	0.437	0.46	0.494	0.441	0.953	1.2	1.06	0.886
LU99A	0.302	0.366	0.32	0.308	0.535	0.541	0.497	0.461	0.222	0.23	0.327	0.246	0.91	0.88	0.774	0.676	0.529	0.703	0.566	0.504
